ChEMBL document CHEMBL3045385, “Design, synthesis and molecular modelling of novel 4-thiazolidinones of potential activity against Gram positive bacteria” (2013)
In brackets after ≈: the same amount, converted by molar mass. Activity calls are given as the source filed them. The rule behind the calls is not given here.

Tests used:
Escherichia coli [1] = experiment: Antibacterial activity against Escherichia coli ATCC 25922 at 6.25 to 100 ug/ml after 24 hr by two-fold serial dilution method; assay type: functional, organism-based
Shigella sonnei [2] = experiment: Antibacterial activity against Shigella sonnei ATCC 11060 at 6.25 to 100 ug/ml after 24 hr by two-fold serial dilution method; assay type: functional, organism-based
Candida albicans [3] = experiment: Antifungal activity against Candida albicans ATCC 10231 at 6.25 to 100 ug/ml after 7 days by two-fold serial dilution method; assay type: functional, organism-based
Staphylococcus aureus [4] = experiment: Antibacterial activity against Staphylococcus aureus ATCC 25293 at 6.25 to 100 ug/ml after 24 hr by two-fold serial dilution method; assay type: functional, organism-based
[5] = tested on: Mycobacterium tuberculosis; experiment: Antimycobacterium activity against Mycobacterium tuberculosis H37Rv at 100 ug/ml by Microplate Alamar Blue Assay; assay type: functional, organism-based
Bacillus subtilis [6] = experiment: Antibacterial activity against Bacillus subtilis ATCC 10400 at 6.25 to 100 ug/ml after 24 hr by two-fold serial dilution method; assay type: functional, organism-based
Salmonella typhimurium [7] = experiment: Antibacterial activity against Salmonella enterica subsp. enterica serovar Typhimurium at 6.25 to 100 ug/ml after 24 hr by two-fold serial dilution method; assay type: functional, organism-based
Pseudomonas aeruginosa [8] = experiment: Antibacterial activity against Pseudomonas aeruginosa ATCC 27855 at 6.25 to 100 ug/ml after 24 hr by two-fold serial dilution method; assay type: functional, organism-based
Staphylococcus aureus [9] = experiment: Antibacterial activity against Staphylococcus aureus ATCC 25293 after 24 hr by two-fold serial dilution method; assay type: functional; details: ATCC 25293, 24 h
Bacillus subtilis [10] = experiment: Antibacterial activity against Bacillus subtilis ATCC 10400 after 24 hr by two-fold serial dilution method; assay type: functional; details: ATCC 10400, 24 h
Shigella sonnei [11] = experiment: Antibacterial activity against Shigella sonnei ATCC 11060 after 24 hr by two-fold serial dilution method; assay type: functional; details: ATCC 11060, 24 h
Escherichia coli [12] = experiment: Antibacterial activity against Escherichia coli ATCC 25922 after 24 hr by two-fold serial dilution method; assay type: functional; details: ATCC 25922, 24 h
Salmonella typhimurium [13] = experiment: Antibacterial activity against Salmonella enterica subsp. enterica serovar Typhimurium after 24 hr by two-fold serial dilution method; assay type: functional
Pseudomonas aeruginosa [14] = experiment: Antibacterial activity against Pseudomonas aeruginosa ATCC 27855 after 24 hr by two-fold serial dilution method; assay type: functional; details: ATCC 27855, 24 h
Candida albicans [15] = experiment: microbe, parasite or virus in culture; details: ATCC 10231, 168 h
Description: Antifungal activity against Candida albicans ATCC 10231 after 7 days by two-fold serial dilution method

Row | SMILES | Activity (Escherichia coli [1]) | Activity (Shigella sonnei [2]) | Activity (Candida albicans [3]) | Activity (Staphylococcus aureus [4]) | Activity [5] | Activity (Bacillus subtilis [6]) | Activity (Salmonella typhimurium [7]) | Activity (Pseudomonas aeruginosa [8]) | MIC (Staphylococcus aureus [9]) [µg/mL] | MIC (Bacillus subtilis [10]) [µg/mL] | MIC (Shigella sonnei [11]) [µg/mL] | MIC (Escherichia coli [12]) [µg/mL] | MIC (Salmonella typhimurium [13]) [µg/mL] | MIC (Pseudomonas aeruginosa [14]) [µg/mL] | MIC (Candida albicans [15]) [µg/mL]
1 | CC(Oc1cc(Cl)c(Cl)cc1Cl)C(=O)N/N=C\c1cccs1 (configuration not stated) | inactive | inactive | inactive | inactive | inactive | inactive | inactive | inactive | – | – | – | – | – | – | –
2 | CC(Oc1cc(Cl)c(Cl)cc1Cl)C(=O)N/N=C\c1cccc([N+](=O)[O-])c1 (configuration not stated) | inactive | inactive | inactive | inactive | inactive | inactive | inactive | inactive | – | – | – | – | – | – | –
3 | Cc1ccc(C2(C)SCC(=O)N2NC(=O)C(C)Oc2cc(Cl)c(Cl)cc2Cl)cc1 (configuration not stated) | inactive | inactive | inactive | – | inactive | – | inactive | inactive | 12.5 (≈ 26.4 µM) | 6.25 (≈ 13.2 µM) | – | – | – | – | –
4 | CC(Oc1cc(Cl)c(Cl)cc1Cl)C(=O)NN1C(=O)CSC1c1cccnc1 (configuration not stated) | inactive | inactive | inactive | – | inactive | – | inactive | inactive | 6.25 (≈ 14 µM) | 12.5 (≈ 28 µM) | – | – | – | – | –
5 | CC(Oc1cc(Cl)c(Cl)cc1Cl)C(=O)NN1C(=O)CSC1c1cccc([N+](=O)[O-])c1 (configuration not stated) | inactive | inactive | inactive | – | inactive | – | inactive | inactive | 12.5 (≈ 25.5 µM) | 12.5 (≈ 25.5 µM) | – | – | – | – | –
6 | CC(Oc1cc(Cl)c(Cl)cc1Cl)C(=O)NN1C(=O)CSC1c1ccncc1 (configuration not stated) | inactive | inactive | inactive | – | inactive | – | inactive | inactive | 6.25 (≈ 14 µM) | 6.25 (≈ 14 µM) | – | – | – | – | –
7 | CC(Oc1cc(Cl)c(Cl)cc1Cl)C(=O)N/N=C\c1cccnc1 (configuration not stated) | inactive | inactive | inactive | inactive | inactive | inactive | inactive | inactive | – | – | – | – | – | – | –
8 | CC(Oc1cc(Cl)c(Cl)cc1Cl)C(=O)N/N=C\c1ccncc1 (configuration not stated) | inactive | inactive | inactive | inactive | inactive | inactive | inactive | inactive | – | – | – | – | – | – | –
9 | Cc1ccc(/C=N\NC(=O)C(C)Oc2cc(Cl)c(Cl)cc2Cl)s1 (configuration not stated) | inactive | inactive | inactive | inactive | inactive | inactive | inactive | inactive | – | – | – | – | – | – | –
10 | Cc1ccc(C2SCC(=O)N2NC(=O)C(C)Oc2cc(Cl)c(Cl)cc2Cl)s1 (configuration not stated) | inactive | inactive | inactive | – | inactive | – | inactive | inactive | 12.5 (≈ 26.8 µM) | 12.5 (≈ 26.8 µM) | – | – | – | – | –
11 | CC(Oc1cc(Cl)c(Cl)cc1Cl)C(=O)N/N=C1/C(=O)Nc2ccccc21 (configuration not stated) | inactive | inactive | inactive | inactive | inactive | inactive | inactive | inactive | – | – | – | – | – | – | –
12 | Cc1ccc(C2SCC(=O)N2NC(=O)C(C)Oc2cc(Cl)c(Cl)cc2Cl)o1 (configuration not stated) | inactive | inactive | inactive | – | inactive | – | inactive | inactive | 12.5 (≈ 27.8 µM) | 12.5 (≈ 27.8 µM) | – | – | – | – | –
13 | CC(Oc1cc(Cl)c(Cl)cc1Cl)C(=O)NN1C(=O)CSC1(C)c1ccc(Cl)cc1 (configuration not stated) | inactive | inactive | inactive | – | inactive | – | inactive | inactive | 12.5 (≈ 25.3 µM) | 12.5 (≈ 25.3 µM) | – | – | – | – | –
14 | O=C(N[C@H](CO)[C@H](O)c1ccc([N+](=O)[O-])cc1)C(Cl)Cl [CHLORAMPHENICOL] | – | – | – | – | – | – | – | – | 6.25 (≈ 19.3 µM) | 6.25 (≈ 19.3 µM) | 25 (≈ 77.4 µM) | 12.5 (≈ 38.7 µM) | 25 (≈ 77.4 µM) | – | –
15 | Clc1ccc(COC(Cn2ccnc2)c2ccc(Cl)cc2Cl)c(Cl)c1 (configuration not stated) [MICONAZOLE] | – | – | – | – | – | – | – | – | – | – | – | – | – | 3.12 (≈ 7.5 µM) | 3.12 (≈ 7.5 µM)
16 | C#CCN1C(=O)/C(=N/NC(=O)C(C)Oc2cc(Cl)c(Cl)cc2Cl)c2ccccc21 (configuration not stated) | inactive | inactive | inactive | inactive | inactive | inactive | inactive | inactive | – | – | – | – | – | – | –
17 | CC(Oc1cc(Cl)c(Cl)cc1Cl)C(=O)NN1C(=O)CSC12C(=O)Nc1ccccc12 (configuration not stated) | inactive | inactive | inactive | – | inactive | – | inactive | inactive | 25 (≈ 51.4 µM) | 50 (≈ 103 µM) | – | – | – | – | –
18 | C/C(=N/NC(=O)C(C)Oc1cc(Cl)c(Cl)cc1Cl)c1ccc(Cl)cc1 (configuration not stated) | inactive | inactive | inactive | inactive | inactive | inactive | inactive | inactive | – | – | – | – | – | – | –
19 | C#CCN1C(=O)C2(SCC(=O)N2NC(=O)C(C)Oc2cc(Cl)c(Cl)cc2Cl)c2ccccc21 (configuration not stated) | inactive | inactive | inactive | – | inactive | – | inactive | inactive | 50 (≈ 95.3 µM) | 50 (≈ 95.3 µM) | – | – | – | – | –
20 | CC(Oc1cc(Cl)c(Cl)cc1Cl)C(=O)NN1C(=O)CSC1c1cccs1 (configuration not stated) | inactive | inactive | inactive | – | inactive | – | inactive | inactive | 6.25 (≈ 13.8 µM) | 6.25 (≈ 13.8 µM) | – | – | – | – | –
21 | Cc1ccc(/C=N\NC(=O)C(C)Oc2cc(Cl)c(Cl)cc2Cl)o1 (configuration not stated) | inactive | inactive | inactive | inactive | inactive | inactive | inactive | inactive | – | – | – | – | – | – | –
22 | C/C(=N/NC(=O)C(C)Oc1cc(Cl)c(Cl)cc1Cl)c1ccc(C)cc1 (configuration not stated) | inactive | inactive | inactive | inactive | inactive | inactive | inactive | inactive | – | – | – | – | – | – | –
